Test results: PMC8895129, “Pseudomonas aeruginosa Biofilm Dispersion by the Human Atrial Natriuretic Peptide” (Advanced Science, 2022)
Like-named read-outs stand apart in the source and are kept apart here.

Assays:
[1] = system: P. aeruginosa PA14 established biofilm; test: Dispersion of 24 h established biofilm in flow cell, CLSM/COMSTAT; assay type: cell-based, Pseudomonas aeruginosa; settings: mean ± SEM; for biofilm biovolumes reduction: 37 °C
Method: For biofilm dispersion experiments, overnight cultures of P. aeruginosa strains were performed in LB medium at 37 °C for 18 h with shaking (180 rpm). Bacterial cells were then washed and adjusted to OD580 = 0.1 in 0.9% w/v NaCl. The bacterial suspensions were then used to form a biofilm for 24 h under hydrodynamic conditions at 37 °C. Briefly, each channel of the flow cell was inoculated with 300 µL of bacterial suspension. A 2 h attachment step was performed without flow. After 2 h, each channel was then pumped with a 2.5 mL h^–1 flow rate of LB medium during 24 h. Next, the 24 h old biofilm of P. aeruginosa was exposed for 2 h (or 30 min) to 300 µL of studied compounds (i.e., peptides, antibiotics, or a combination of peptide + antibiotics) or 300 µL of ultra‐pure distilled water (control condition), added to each channel of the flow cell and without flow. Prior to image acquisition, biofilm cultures were then rinsed with LB medium using 2.5 mL h^–1 flow rate for 15 min. Finally, biofilm cells were stained and then observed by CLSM.
The CLSM observations of biofilms were performed using a Zeiss LSM710 microscope (Carl Zeiss Microscopy, Oberkochen, Germany) using a x40 oil immersion objective. Bacteria into the biofilm were stained with 5 × 10^−6 M of SYTO9 green‐fluorescent dye (Invitrogen, Carlsbad, CA). Biofilm matrix components were stained using fluorescent dyes. To assess the eDNA relative abundance, 1 × 10^−6 M of DDAO (Invitrogen, Carlsbad, CA) was used. The polysaccharides β1‐3 and β1‐4 were labeled with CalcoFluor White M2R at 200 µg mL^−1 (Sigma‐Aldrich, USA). eDNA and polysaccharides values were normalized to biofilms’ biomass. The Live/Dead BacLight kit (Invitrogen, Carlsbad, CA) was used to examine bacterial viability in biofilms according to manufacturer instructions. Images were taken every micrometer throughout the whole biofilm depth. For visualization and processing of 3D image, the Zen 2.1 SP1 software (Carl Zeiss Microscopy, Oberkochen, Germany) was used. Quantitative analyses of images stacks were performed using the COMSTAT software (http://www.imageanalysis.dk/).^[ [77] ^] At least three image stacks from at least three independent experiments were used for each analysis.

[2] = biological target: T1, AmiC (Pseudomonas aeruginosa, UniProt P27017); test: biochemical
Method: Briefly, AmiC protein was labeled using the RED‐NHS labeling kit (NanoTemper Technologies). The labeling reaction was performed according to the manufacturer's instructions in the supplied labeling buffer using a 20 × 10^−6 M protein concentration and a molar dye:protein ratio ≈2:1, at RT for 30 min. […] The label:protein ratio was determined using photometry at 650 and 280 nm. Typically, a ratio of 0.8 was achieved.
For thermophoresis, each ligand dilution was mixed with one volume of AmiC, which led to a final concentration of AmiC of 50 × 10^−9 M and final ligand concentrations at half of the ranges above. Instrument parameters were adjusted with 50% light‐emitting diode power and 20% MST power. Data of three independently pipetted measurements were analyzed (NT.Analysis software version 1.5.41, NanoTemper Technologies) using the signal from Thermophoresis + T‐Jump.

[3] = system: human Ether-a-go-go Related Gene (hERG) channel
[4] = biological target: T1, AmiC; design: made in house; settings: cited from earlier work
From the text: […]; see 2.0 ± 0.3 × 10^−6 M for hCNP^[ [44] ^]). This is consistent with the van der Waals and hydrog ...

T1 sequence (P27017 whole entry): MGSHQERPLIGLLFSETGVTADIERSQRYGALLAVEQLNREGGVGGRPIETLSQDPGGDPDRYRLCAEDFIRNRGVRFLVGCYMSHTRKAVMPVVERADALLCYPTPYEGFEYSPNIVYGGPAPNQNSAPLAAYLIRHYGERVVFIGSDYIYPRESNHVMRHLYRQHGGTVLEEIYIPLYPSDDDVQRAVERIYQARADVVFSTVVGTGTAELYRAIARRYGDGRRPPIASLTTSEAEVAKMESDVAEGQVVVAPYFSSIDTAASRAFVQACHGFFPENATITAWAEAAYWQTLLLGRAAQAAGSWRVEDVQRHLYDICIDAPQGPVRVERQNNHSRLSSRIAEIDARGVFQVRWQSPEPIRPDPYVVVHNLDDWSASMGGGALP

polymyxin B
biovolume reduction ([1]; polymyxin B 4 µg mL^−1, 2 h, n = 5): 70.0 ± 4.3%

NC[C@H]1O[C@H](O[C@H]2[C@H](O)[C@@H](O[C@H]3O[C@H](CO)[C@@H](O)[C@H](N)[C@H]3O)[C@H](N)C[C@@H]2N)[C@H](N)C[C@@H]1O [tobramycin]
biofilm biovolumes reduction ([1]; tobramycin 10 µg mL^−1, 2 h, n = 3): 79.0 ± 4.0% | biofilm biovolumes reduction ([1]; tobramycin 50 µg mL^−1, 2 h, n = 4): 76.6 ± 4.0%

C[C@@H](O)[C@H]1C(=O)N2C(C(=O)O)=C(SCCN=CN)C[C@H]12 [imipenem]
biofilm reduction ([1]; imipenem 0.5 µg mL^−1, 2 h, n = 5): 69.8 ± 3.0%

CC[C@H](C)[C@@H]1NC(=O)[C@H](CCCNC(=N)N)NC(=O)[C@H](CC(=O)O)NC(=O)[C@H](CCSC)NC(=O)[C@H](CCCNC(=N)N)NC(=O)CNC(=O)CNC(=O)[C@H](Cc2ccccc2)NC(=O)[C@@H](NC(=O)[C@H](CO)NC(=O)[C@H](CO)NC(=O)[C@H](CCCNC(=N)N)NC(=O)[C@H](CCCNC(=N)N)NC(=O)[C@H](CC(C)C)NC(=O)[C@@H](N)CO)CSSC[C@@H](C(=O)N[C@@H](CC(N)=O)C(=O)N[C@@H](CO)C(=O)N[C@@H](Cc2ccccc2)C(=O)N[C@@H](CCCNC(=N)N)C(=O)N[C@@H](Cc2ccc(O)cc2)C(=O)O)NC(=O)CNC(=O)[C@H](CC(C)C)NC(=O)CNC(=O)[C@H](CO)NC(=O)[C@H](CCC(N)=O)NC(=O)[C@H](C)NC(=O)CNC1=O [hANP, human Atrial Natriuretic Peptide]
Kd [2]: 5 ± 3 µM | hERG cardiac channel conductance [3]: did not modify

Brain Natriuretic Peptide [hBNP]
affinity for AmiC [4]: no affinity

C‐type Natriuretic Peptide [hCNP]
Kd ([4]; microscale thermophoresis, read-out: K D, binding to AmiC): 2 ± 0.3 µM
